Drawing on EP4467141A1, “PYRAZOLO-QUINOLINES AS SELECTIVE INHIBITORS OF GENOTOXIC STRESS-INDUCED IKK/NF- KB PATHWAYS FOR CANCER THERAPY” (Max-Delbrück-Centrum für Molekulare Medizin in der …, priority 2023, dated 2024), this text covers inhibition for two compounds.

Molecules are shown by their SMILES.

By inhibition is commonly meant the drop in the measured response relative to a control, in per cent.

Common to all, as to experiment: Kinase panel study
What all share (format): biochemical
What all share (details): read-out: Percentage of inhibition; for inhibition at 1 µM: 1000nM; for inhibition at 10 µM: 10000nM

One assay deals with T1, GSK3B (GSK3 beta) (Homo sapiens, UniProt P49841).
T1 construct: purchased Thermo Fisher Scientific
In short, it runs like this:
(§1)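 Lead compounds and derivatives were profiled by ZLyte or Adapta in vitro kinase assays. Each value reports inhibition percentage at one of two concentrations, 1 µM or 10 µM.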

Another assay concerns the target T2, EGFR (ErbB1) C797S (Homo sapiens, UniProt P00533, C797S).
T2 construct: purchased Thermo Fisher Scientific
In short, it runs like this: as §1

A further assay has as its target T3, SRPK2 (Homo sapiens, UniProt P78362).
T3 construct: purchased Thermo Fisher Scientific
In short, it runs like this: as §1

The target of a further assay is T4, JAK3 (Homo sapiens, UniProt P52333).
T4 construct: purchased Thermo Fisher Scientific
T4 sequence (P52333 1-1124): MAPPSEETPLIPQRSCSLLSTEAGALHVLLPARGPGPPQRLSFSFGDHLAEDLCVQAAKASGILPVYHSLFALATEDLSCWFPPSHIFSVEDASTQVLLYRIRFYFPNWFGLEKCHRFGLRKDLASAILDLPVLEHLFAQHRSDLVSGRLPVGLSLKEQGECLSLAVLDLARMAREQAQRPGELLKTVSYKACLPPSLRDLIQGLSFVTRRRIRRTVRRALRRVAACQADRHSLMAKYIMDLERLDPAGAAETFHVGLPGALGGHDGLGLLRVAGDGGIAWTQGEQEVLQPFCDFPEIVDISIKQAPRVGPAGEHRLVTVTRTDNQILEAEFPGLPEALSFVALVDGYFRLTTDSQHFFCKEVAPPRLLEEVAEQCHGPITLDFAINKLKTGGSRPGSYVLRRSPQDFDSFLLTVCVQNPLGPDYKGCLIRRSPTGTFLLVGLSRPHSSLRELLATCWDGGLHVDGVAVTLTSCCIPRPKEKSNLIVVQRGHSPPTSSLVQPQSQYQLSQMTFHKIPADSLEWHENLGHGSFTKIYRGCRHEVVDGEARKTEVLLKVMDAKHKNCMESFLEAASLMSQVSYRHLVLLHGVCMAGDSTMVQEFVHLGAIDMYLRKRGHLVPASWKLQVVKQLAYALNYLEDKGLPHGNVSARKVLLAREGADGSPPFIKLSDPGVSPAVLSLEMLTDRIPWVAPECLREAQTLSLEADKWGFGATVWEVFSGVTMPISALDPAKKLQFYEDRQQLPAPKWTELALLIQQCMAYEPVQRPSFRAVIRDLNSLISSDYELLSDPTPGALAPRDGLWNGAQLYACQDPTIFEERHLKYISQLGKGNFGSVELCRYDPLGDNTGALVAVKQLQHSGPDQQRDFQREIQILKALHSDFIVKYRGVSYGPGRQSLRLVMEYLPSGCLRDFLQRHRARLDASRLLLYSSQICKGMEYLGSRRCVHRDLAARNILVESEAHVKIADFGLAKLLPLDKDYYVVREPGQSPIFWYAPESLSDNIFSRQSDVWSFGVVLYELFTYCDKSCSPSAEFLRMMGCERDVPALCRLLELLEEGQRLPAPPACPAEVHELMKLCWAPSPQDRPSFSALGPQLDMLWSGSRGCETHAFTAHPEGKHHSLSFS
An outline of the steps: as §1

T3 sequence (P78362 whole entry): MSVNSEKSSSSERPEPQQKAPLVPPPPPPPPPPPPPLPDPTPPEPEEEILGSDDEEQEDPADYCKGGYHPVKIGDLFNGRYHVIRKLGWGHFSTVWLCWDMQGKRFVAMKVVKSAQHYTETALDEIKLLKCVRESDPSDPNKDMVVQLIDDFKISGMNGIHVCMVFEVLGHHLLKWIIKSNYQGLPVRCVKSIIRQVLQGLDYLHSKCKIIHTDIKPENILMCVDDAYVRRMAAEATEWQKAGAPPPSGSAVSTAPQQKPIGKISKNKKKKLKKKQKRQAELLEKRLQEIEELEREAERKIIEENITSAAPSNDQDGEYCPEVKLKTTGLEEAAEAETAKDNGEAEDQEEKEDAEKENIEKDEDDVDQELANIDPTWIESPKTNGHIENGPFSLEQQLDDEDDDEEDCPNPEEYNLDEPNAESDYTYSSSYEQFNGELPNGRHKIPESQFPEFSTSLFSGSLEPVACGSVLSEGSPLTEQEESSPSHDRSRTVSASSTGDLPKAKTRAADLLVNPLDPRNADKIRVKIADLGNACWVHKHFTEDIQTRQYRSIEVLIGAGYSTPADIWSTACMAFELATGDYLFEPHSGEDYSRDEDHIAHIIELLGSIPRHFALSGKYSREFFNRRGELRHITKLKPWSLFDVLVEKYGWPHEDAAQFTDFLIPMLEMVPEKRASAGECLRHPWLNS
T1 sequence (P49841 whole entry): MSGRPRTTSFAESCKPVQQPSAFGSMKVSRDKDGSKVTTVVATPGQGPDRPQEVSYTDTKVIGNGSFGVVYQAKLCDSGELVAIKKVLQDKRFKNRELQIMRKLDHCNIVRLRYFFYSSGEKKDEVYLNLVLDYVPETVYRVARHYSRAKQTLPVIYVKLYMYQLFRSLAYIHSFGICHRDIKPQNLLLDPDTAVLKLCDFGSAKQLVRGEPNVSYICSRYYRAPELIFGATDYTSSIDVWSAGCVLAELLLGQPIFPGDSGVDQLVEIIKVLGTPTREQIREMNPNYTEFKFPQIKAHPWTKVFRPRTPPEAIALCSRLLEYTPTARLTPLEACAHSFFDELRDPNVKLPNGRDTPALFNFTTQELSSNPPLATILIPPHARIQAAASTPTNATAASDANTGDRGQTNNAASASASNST
T2 sequence (P00533 25-1210 C797S): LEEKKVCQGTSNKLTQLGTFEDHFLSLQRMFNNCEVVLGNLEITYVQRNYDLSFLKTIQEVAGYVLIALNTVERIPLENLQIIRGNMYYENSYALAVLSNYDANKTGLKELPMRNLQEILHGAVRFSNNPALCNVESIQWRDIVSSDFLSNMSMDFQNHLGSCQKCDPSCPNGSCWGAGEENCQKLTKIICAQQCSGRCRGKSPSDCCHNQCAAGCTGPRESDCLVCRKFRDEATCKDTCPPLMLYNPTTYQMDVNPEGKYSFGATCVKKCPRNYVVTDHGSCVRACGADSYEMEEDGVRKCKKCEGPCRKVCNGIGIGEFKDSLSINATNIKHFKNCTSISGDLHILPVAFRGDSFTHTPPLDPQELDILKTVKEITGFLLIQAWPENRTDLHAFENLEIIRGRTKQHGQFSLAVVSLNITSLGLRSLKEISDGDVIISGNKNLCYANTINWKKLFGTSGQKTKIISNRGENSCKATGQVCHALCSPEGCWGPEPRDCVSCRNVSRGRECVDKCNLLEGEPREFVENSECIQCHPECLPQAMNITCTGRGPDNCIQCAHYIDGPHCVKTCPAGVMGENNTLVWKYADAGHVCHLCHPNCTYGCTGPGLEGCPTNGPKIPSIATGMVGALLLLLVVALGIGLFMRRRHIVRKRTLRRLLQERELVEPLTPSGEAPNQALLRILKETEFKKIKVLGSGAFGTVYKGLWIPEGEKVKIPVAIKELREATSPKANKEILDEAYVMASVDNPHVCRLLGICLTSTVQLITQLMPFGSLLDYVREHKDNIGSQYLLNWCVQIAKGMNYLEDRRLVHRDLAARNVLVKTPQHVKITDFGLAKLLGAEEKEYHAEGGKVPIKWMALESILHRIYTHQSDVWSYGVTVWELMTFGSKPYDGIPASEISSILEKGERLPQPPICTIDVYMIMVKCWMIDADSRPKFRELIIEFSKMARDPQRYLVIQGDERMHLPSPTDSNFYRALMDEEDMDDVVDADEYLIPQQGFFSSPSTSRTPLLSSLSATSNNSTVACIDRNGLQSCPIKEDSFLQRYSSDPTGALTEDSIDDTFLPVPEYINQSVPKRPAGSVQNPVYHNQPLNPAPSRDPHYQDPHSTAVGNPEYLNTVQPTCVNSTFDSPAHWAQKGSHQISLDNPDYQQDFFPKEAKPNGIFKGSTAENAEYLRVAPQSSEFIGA

As to `COc1ccc2c(c1OC)c(=O)n1c3ccc(O)cc3c3ccnc2c31` [MW01, 5-Hydroxy-10,11-dimethoxy-9H-benzo[c]indolo[3,2,1-ij][1,5]naphthyridin-9-one], the inhibition at 1 µM on GSK3B (GSK3 beta) is 27%; at EGFR (ErbB1) C797S it was 4%; on SRPK2 it was -2%; on JAK3, 9%. Also, the inhibition at 10 µM was found to be 52% at GSK3B (GSK3 beta), 11% on EGFR (ErbB1) C797S, 0% at SRPK2 and 20% on JAK3.

As for `COc1ccc2cc3c(N)nn(C(=O)c4cccc(N(C)C)c4)c3nc2c1` [MW05, (3-Amino-7-methoxypyrazolo[3,4-b]quinolin-1-yl)-[3-(dimethylamino)phenyl]methanone], the inhibition at 1 µM at GSK3B (GSK3 beta) was 6%; at EGFR (ErbB1) C797S, 1%; at SRPK2 it was 4%; on JAK3, 4%. Besides, the inhibition at 10 µM was 14% at GSK3B (GSK3 beta), -14% at EGFR (ErbB1) C797S, 10% on SRPK2 and -6% on JAK3.
